Results published in PubChem BioAssay AID1159559 (GlaxoSmithKline (GSK), 2015).
Active and inactive are the calls of the source.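 Rule for the calls: active = compounds whose IC50 against parasite growth in infected mouse cells is below 50000 nM; inactive = the rest.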

Test system: T. cruzi Tulahuen in NIH-3T3, beta-gal fluorescence, 4 d
Test: anti-Chagas amastigote proliferation inhibitors – cell-based (AID 1159559)

| SMILES | IC50 |
| --- | --- |
| Nc1nonc1-c1nc2cncc(C(=O)N3CC[C@H](N)C3)c2n1CC1CC1 | > 50000 nM (inactive) |
| O=C(Nc1nc(-c2ccccn2)cs1)C1CCc2ccccc2C1 (stereo not given) | 2000 nM |
| Cc1ccc2c(c1)-c1onc(C(=O)N3CCCCC3c3cccnc3)c1CO2 (stereo not given) | 100 nM |
| Cc1cc2nc(CN(C)Cc3ncccc3C)[nH]c2cc1C | 500 nM |
| COc1cccc(CCNC(=O)C(c2cn[nH]c2)N2CCN(c3ccc(Cl)cc3)CC2)c1 (stereo not given) | 20 nM |
| Clc1ccc(Sc2cnccc2N2CCOCC2)cc1 | 130 nM |
| NC(=O)c1cc(NC(=O)c2ccccc2COc2ccccc2)ccc1Cl | 40000 nM |
| c1ccc2c(CCOc3nccnc3-c3ccncc3)c[nH]c2c1 | 130 nM |
| COc1ccc(C2=NCC(CSc3nnc(-c4ccc5c(c4)OCO5)o3)S2)cc1 (stereo not given) | 2500 nM |
| Cc1nc(-c2ccc3c(c2)OCO3)sc1C(=O)NCc1ccc2c(c1)OCO2 | 3200 nM |
| Cn1nc([N+](=O)[O-])nc1Oc1ccc(C(=O)c2ccccc2)cc1 | 250 nM |
| O=C(c1ccccc1)N1CCC(C(=O)N2CCC(Oc3ccccc3Cl)CC2)CC1 | 2000 nM |
| Cn1nc(C(=O)N2CCc3ccccc32)c2c1CCS(=O)(=O)C2 | 7900 nM |
| O=C(c1ccc(O)c(Cl)c1)N1CCN(c2cnccn2)CC1 | > 50000 nM (inactive) |
| O=C1c2cnc(N3CCCC3)nc2CN1c1ccc2c(c1)OCO2 | 2500 nM |
| CCCNC(=O)Nc1cccc(-c2nc3ncccc3o2)c1 | 2500 nM |
| O=C(O)[C@H]1C[C@@H]1c1ccc(-c2ccc(CN(CCc3ccccn3)C(=O)C3CCC3)cc2)cc1 | > 50000 nM (inactive) |
| c1cncc(CN(Cc2ccco2)Cc2cn[nH]c2-c2cccs2)c1 | 20 nM |
| CC1=NN(C(=O)CCn2cnc([N+](=O)[O-])n2)C(O)(C(F)(F)F)C1 (stereo not given) | 2000 nM |
| O=C(NCCc1ccn(-c2ccccc2)n1)C1CCCCC1 | 1300 nM |
| COc1ccc(C(=O)NC2CCN(CCn3c(=O)ccc4ncc(F)cc43)CC2)cc1Cl | 500 nM |
| Cc1c(CNC(=O)c2ccc(Cn3cc(Cl)c([N+](=O)[O-])n3)cc2)cnn1C | 1000 nM |
| Cc1[nH]n2c(=O)c3c(nc2c1-c1ccc(Cl)cc1)CCCC3 | 400 nM |
| CS(=O)(=O)NC1CCC(Nc2ncc(Br)c(Nc3ccccc3C(N)=O)n2)CC1 (stereo not given) | 7900 nM |
| O=C(Nc1nc(-c2ccccn2)cs1)c1ccccc1-n1cnnn1 | 3200 nM |
| O=C(NCC1CCCCC1)c1cnns1 | 2500 nM |
| Cc1cc(N(C)C)nc2ccc(Cc3cnc(N)nc3N)cc12 | 1300 nM |
| CCN(CC)c1ncc(C(=O)c2ccc([N+](=O)[O-])o2)s1 | 4000 nM |

| SMILES | IC50 |
| --- | --- |
| Cc1cc(Nc2cc(C3CC3)[nH]n2)nc(N2CCCC2)n1 | 79 nM |
| CCc1ccc2nc(NC(=O)c3cc(N4CCOCC4)ccn3)sc2c1 | 2500 nM |
| O=C(CC1(O)C(=O)N(Cc2ccccc2)c2ccc(Br)cc21)c1cccnc1 (stereo not given) | 5000 nM |
| COCCn1c(-c2ccc3c(c2)OCO3)cnc1NCc1ccccc1OC | 7900 nM |
| CC1CN(Cc2ccc(C#N)cc2)CCN1c1ccc(NC(=O)c2ccccc2F)cc1 (stereo not given) | 25000 nM |
| O=c1[nH]cnc2c([C@@H]3O[C@H](CO)[C@@H](O)[C@H]3O)[nH]nc12 | 130 nM |
| O=C(Nc1nc(-c2ccc(S(=O)(=O)N3CCOCC3)cc2)cs1)c1ccc([N+](=O)[O-])cc1 | 1000 nM |
| CC(C)c1cc(Nc2cc(Cc3ccccc3)nc(NC3CCC(O)CC3)n2)n[nH]1 (stereo not given) | 79 nM |
| OC[C@@H](Nc1nccc(-c2c(-c3ccc(F)cc3)ncn2C2CCNCC2)n1)c1ccccc1 | 32000 nM |
| COc1ccc(Nc2nc(-c3ccccn3)cc(N3CCCC(O)C3)n2)cc1 (stereo not given) | 630 nM |
| COc1cccc(CN(C)Cc2nc(N)c3c(C)c(C)sc3n2)c1 | 6300 nM |
| O=C(Nc1cccc(Cl)c1)N1CCCCC1c1cccnc1 (stereo not given) | 160 nM |
| O=[N+]([O-])c1ccc(-c2nnn(-c3ccc(Cl)cc3)n2)o1 | 250 nM |
| O=C(NCC(c1cccnc1)N1CCc2ccccc2C1)C(=O)Nc1cccc(Cl)c1 (stereo not given) | 200 nM |
| NC(=O)c1cc(F)ccc1Nc1nc(NC2CCC(O)CC2)ncc1Cl (stereo not given) | 4000 nM |
| Cc1ccc2ccc(C(Nc3ccccn3)c3cccnc3)c(O)c2n1 (stereo not given) | 500 nM |
| Nc1nc(-c2ccccn2)nc(-n2nc(-c3ccccc3)cc2N)n1 | 500 nM |
| CCOc1ccc(N(C)S(=O)(=O)c2ccc3[nH]cc(C(=O)NC4CCCC4)c(=O)c3c2)cc1 | 7900 nM |
| COc1ncc(-c2ccc3ncnc(N4CCOCC4)c3c2)cc1NS(C)(=O)=O | 500 nM |
| CNC(=O)Oc1ccc(C(=O)NCc2ccccc2)cc1OC(=O)NC | 32000 nM |
| CCN(CC)S(=O)(=O)c1ccc(Cn2nc(C(=O)Nc3ccncn3)c3ccccc32)cc1 | 320 nM |
| O=C(Nc1nccs1)c1ccccc1Cn1cc([N+](=O)[O-])cn1 | > 50000 nM (inactive) |
| COc1ncc(-c2ccc3nccc(-c4ccncc4)c3c2)cc1NS(C)(=O)=O | 1600 nM |
| CC(C)(C)C(O)(CCc1ccc(Cl)cc1)Cn1cncn1 (stereo not given) | 130 nM |
| Cc1nc(N2CCC(C(=O)N3CCC(O)(c4cccnc4)CC3)CC2)nc2ccc(C(C)C)cc12 | 1600 nM |
| CN(Cc1nc2ccccc2s1)C(=O)C=Cc1cc2ccccc2o1 | 630 nM |
| O=C(NCCc1csc(-c2ccc(F)cc2)n1)c1ccco1 | 2000 nM |
